Experimental data taken from patent US6737383B1, “Herbicidal oxadiazolidines” (priority 1999, dated 2004).

Legend:
bedstraw = assay: Test B pre/postemergence bedstraw; assay type: in vivo, Galium aparine
Summary of the method: (§1)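 Test chemicals in a non-phytotoxic solvent mixture with surfactant were sprayed preemergence onto planted seeds and postemergence onto plants 2 to 18 cm tall (1- to 4-leaf stage). After twelve to sixteen days in a greenhouse, injury was visually rated against untreated controls from 0 (no effect) to 10 (complete control).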

surinam grass = assay: Test B pre/postemergence surinam grass; assay type: in vivo, Brachiaria decumbens
Summary of the method: as §1

cocklebur = assay: Test B pre/postemergence cocklebur; assay type: in vivo, Xanthium strumarium
Summary of the method: as §1

corn = assay: Test B pre/postemergence corn; assay type: in vivo, Zea mays
Summary of the method: as §1

giant foxtail = assay: Test B pre/postemergence giant foxtail; assay type: in vivo, Setaria faberii
Summary of the method: as §1

pigweed = assay: Test B pre/postemergence pigweed; assay type: in vivo, Amaranthus retroflexus
Summary of the method: as §1

rape = assay: Test B pre/postemergence rape; assay type: in vivo, Brassica napus
Summary of the method: as §1

soybean = assay: Test B pre/postemergence soybean; assay type: in vivo, Glycine max
Summary of the method: as §1

sugar beet = assay: Test B pre/postemergence sugar beet; assay type: in vivo, Beta vulgaris
Summary of the method: as §1

velvetleaf = assay: Test B pre/postemergence velvetleaf; assay type: in vivo, Abutilon theophrasti
Summary of the method: as §1

wheat = assay: Test B pre/postemergence wheat; assay type: in vivo, Triticum aestivum
Summary of the method: as §1

wild oat = assay: Test B pre/postemergence wild oat; assay type: in vivo, Avena fatua
Summary of the method: as §1

purple nutsedge = assay: Test B pre/postemergence purple nutsedge; assay type: in vivo, Cyperus rotundus
Summary of the method: as §1

rice = assay: Test B flood test rice; assay type: in vivo, Oryza sativa
Summary of the method: (§2)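 Each value is a visual injury score relative to controls, with 10 meaning complete control and 0 no effect. Evaluation took place twelve to sixteen days after the 2-leaf-stage plants were treated and kept in the greenhouse.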

smallflower flatsedge = assay: Test B flood test smallflower flatsedge; assay type: in vivo, Cyperus difformis
Summary of the method: as §2

duck salad = assay: Test B flood test duck salad; assay type: in vivo, Heteranthera limosa
Summary of the method: as §2

[1] = Preemergence, Rate 62 g/ha, scale of 0 to 10 where 0 is no effect and 10 is complete control
[2] = Preemergence, Rate 125 g/ha, 0 is no effect, 10 is complete control
[3] = Preemergence, Rate 250 g/ha, scale 0 to 10, 0 is no effect, 10 is complete control
[4] = Preemergence, Rate 500 g/ha, scale of 0 to 10 where 0 is no effect and 10 is complete control
[5] = Rate 62 g/ha, Postemergence, scale of 0 to 10 where 0 is no effect and 10 is complete control
[6] = Rate 125 g/ha, Postemergence, scale 0 to 10
[7] = Rate 500 g/ha, Postemergence, scale 0 to 10
[8] = Rate 62 g/ha, headed Pre-emergence (flood test species), scale 0 to 10 (0 no effect, 10 complete control)
[9] = Rate 125 g/ha, Pre-emergence, flood test species, scale 0 to 10 where 0 is no effect and 10 is complete control
[10] = Rate 250 g/ha, Pre-emergence, flood-test species, scale 0 to 10, 0 is no effect, 10 is complete control
[11] = Rate 500 g/ha, headed Pre-emergence (flood test species), scale 0 to 10 (0 no effect, 10 complete control)

Compound: Cc1ccccc1-n1c(=O)on(C(=O)N(c2ccccc2F)C(C)C)c1=O [Compound 204]
- Bedstraw plant response rating (bedstraw; [1]): 0
- Bedstraw plant response rating (0 to 10 scale) (bedstraw; [2]): 0
- Bedstraw plant response rating (bedstraw; [3]): 0
- Plant response rating, Bedstraw (bedstraw; [4]): 0
- Bedstraw plant response rating (bedstraw; [5]): 0
- Bedstraw plant response rating (bedstraw; [6]): 0
- Plant response rating (0 to 10; 0 is no effect, 10 is complete control), Bedstraw (bedstraw; Rate 250 g/ha, Postemergence): 6
- Bedstraw plant response rating (bedstraw; [7]): 7
- B. signalgrass plant response rating (surinam grass; [1]): 0
- B. signalgrass plant response rating (0 to 10 scale) (surinam grass; [2]): 0
- B. signalgrass plant response rating (surinam grass; [3]): 0
- Plant response rating, B. signalgrass (surinam grass; [4]): 2
- B. signalgrass plant response rating (surinam grass; [5]): 0
- B. signalgrass plant response rating (surinam grass; Rate 125 g/ha, Postemergence, scale 0 (no effect) to 10 (complete control)): 0
- Plant response rating, B. signalgrass (surinam grass; Rate 250 g/ha, Postemergence, scale 0 to 10, 0 is no effect, 10 is complete control): 0
- B. signalgrass plant response rating (surinam grass; Rate 500 g/ha, Postemergence, scale 0 to 10, 0 no effect, 10 complete control): 0
- Cocklebur plant response rating (cocklebur; [1]): 0
- Cocklebur plant response rating (0 to 10 scale) (cocklebur; [2]): 0
- Cocklebur plant response rating (cocklebur; [3]): 0
- Plant response rating, Cocklebur (cocklebur; [4]): 0
- Cocklebur plant response rating (cocklebur; [5]): 0
- Cocklebur plant response rating (cocklebur; [6]): 0
- Plant response rating (0 to 10; 0 is no effect, 10 is complete control), Cocklebur (cocklebur; Rate 250 g/ha, Postemergence): 1
- Cocklebur plant response rating (cocklebur; [7]): 1
- Corn plant response rating (corn; [1]): 0
- Corn plant response rating (0 to 10 scale) (corn; [2]): 0
- Corn plant response rating (corn; [3]): 0
- Plant response rating, Corn (corn; [4]): 2
- Corn plant response rating (corn; [5]): 0
- Corn plant response rating (corn; [6]): 0
- Plant response rating (0 to 10; 0 is no effect, 10 is complete control), Corn (corn; Rate 250 g/ha, Postemergence): 0
- Corn plant response rating (corn; [7]): 0
- Giant foxtail plant response rating (giant foxtail; [1]): 7
- Giant foxtail plant response rating (0 to 10 scale) (giant foxtail; [2]): 9
- Giant foxtail plant response rating (giant foxtail; [3]): 10
- Plant response rating, Giant foxtail (giant foxtail; [4]): 10
- Giant foxtail plant response rating (giant foxtail; [5]): 0
- Giant foxtail plant response rating (giant foxtail; [6]): 0
- Plant response rating (0 to 10; 0 is no effect, 10 is complete control), Giant foxtail (giant foxtail; Rate 250 g/ha, Postemergence): 0
- Giant foxtail plant response rating (giant foxtail; [7]): 3
- Redroot pigweed plant response rating (pigweed; [1]): 0
- Redroot pigweed plant response rating (0 to 10 scale) (pigweed; [2]): 0
- Redroot pigweed plant response rating (pigweed; [3]): 0
- Plant response rating, Redroot pigweed (pigweed; [4]): 0
- Redroot pigweed plant response rating (pigweed; [5]): 0
- Redroot pigweed plant response rating (pigweed; [6]): 0
- Plant response rating (0 to 10; 0 is no effect, 10 is complete control), Redroot pigweed (pigweed; Rate 250 g/ha, Postemergence): 4
- Redroot pigweed plant response rating (pigweed; [7]): 7
- Rape plant response rating (rape; [1]): 0
- Rape plant response rating (0 to 10 scale) (rape; [2]): 0
- Rape plant response rating (rape; [3]): 0
- Plant response rating, Rape (rape; [4]): 3
- Rape plant response rating (rape; [5]): 0
- Rape plant response rating (rape; [6]): 0
- Plant response rating (0 to 10; 0 is no effect, 10 is complete control), Rape (rape; Rate 250 g/ha, Postemergence): 0
- Rape plant response rating (rape; [7]): 0
- Soybean plant response rating (soybean; [1]): 0
- Soybean plant response rating (0 to 10 scale) (soybean; [2]): 0
- Soybean plant response rating (soybean; [3]): 0
- Plant response rating, Soybean (soybean; [4]): 0
- Soybean plant response rating (soybean; [5]): 1
- Soybean plant response rating (soybean; [6]): 1
- Plant response rating (0 to 10; 0 is no effect, 10 is complete control), Soybean (soybean; Rate 250 g/ha, Postemergence): 1
- Soybean plant response rating (soybean; [7]): 7
- Sugarbeets plant response rating (sugar beet; [1]): 0
- Sugarbeets plant response rating (0 to 10 scale) (sugar beet; [2]): 0
- Sugarbeets plant response rating (sugar beet; [3]): 0
- Plant response rating, Sugarbeets (sugar beet; [4]): 0
- Sugarbeets plant response rating (sugar beet; [5]): 0
- Sugarbeets plant response rating (sugar beet; [6]): 0
- Plant response rating (0 to 10; 0 is no effect, 10 is complete control), Sugarbeets (sugar beet; Rate 250 g/ha, Postemergence): 0
- Sugarbeets plant response rating (sugar beet; [7]): 0
- Velvetleaf plant response rating (velvetleaf; [1]): 0
- Velvetleaf plant response rating (velvetleaf; [3]): 0
- Plant response rating, Velvetleaf (velvetleaf; [4]): 0
- Velvetleaf plant response rating (velvetleaf; [5]): 0
- Velvetleaf plant response rating (velvetleaf; [6]): 1
- Plant response rating (0 to 10; 0 is no effect, 10 is complete control), Velvetleaf (velvetleaf; Rate 250 g/ha, Postemergence): 1
- Wheat plant response rating (wheat; [1]): 0
- Wheat plant response rating (wheat; [3]): 0
- Plant response rating, Wheat (wheat; [4]): 2
- Wheat plant response rating (wheat; [5]): 0
- Wheat plant response rating (wheat; [6]): 0
- Plant response rating (0 to 10; 0 is no effect, 10 is complete control), Wheat (wheat; Rate 250 g/ha, Postemergence): 0
- Wild oats plant response rating (wild oat; [1]): 0
- Wild oats plant response rating (wild oat; [3]): 3
- Plant response rating, Wild oats (wild oat; [4]): 6
- Wild oats plant response rating (wild oat; [5]): 0
- Wild oats plant response rating (wild oat; [6]): 0
- Plant response rating (0 to 10; 0 is no effect, 10 is complete control), Wild oats (wild oat; Rate 250 g/ha, Postemergence): 0
- Nutsedge plant response rating (purple nutsedge; [1]): 0
- Nutsedge plant response rating (0 to 10 scale) (purple nutsedge; [2]): 0
- Nutsedge plant response rating (purple nutsedge; [3]): 0
- Plant response rating, Nutsedge (purple nutsedge; [4]): 0
- Nutsedge plant response rating (purple nutsedge; [5]): 0
- Nutsedge plant response rating (purple nutsedge; [6]): 0
- Plant response rating (0 to 10; 0 is no effect, 10 is complete control), Nutsedge (purple nutsedge; Rate 250 g/ha, Postemergence): 0
- Nutsedge plant response rating (purple nutsedge; [7]): 0
- Rice plant response rating (rice; [8]): 0
- Rice plant response rating (rice; [9]): 0
- Rice plant response rating (rice; [10]): 0
- Plant response rating, Rice (rice; [11]): 0
- S. Flatsedge plant response rating (smallflower flatsedge; [8]): 0
- S. Flatsedge plant response rating (smallflower flatsedge; [9]): 0
- S. Flatsedge plant response rating (smallflower flatsedge; [10]): 0
- S. Flatsedge plant response rating (smallflower flatsedge; Rate 500 g/ha, Pre-emergence, flood test species, scale 0 to 10 (0 no effect, 10 complete control)): 0
- Ducksalad plant response rating (duck salad; [8]): 0
- Ducksalad plant response rating (duck salad; [9]): 0
- Ducksalad plant response rating (duck salad; [10]): 0
- Plant response rating, Ducksalad (duck salad; [11]): 0
